Data reported in patent US20250288573A1 (H. LEE MOFFITT CANCER CENTER AND RESEARCH INSTITUTE, INC., priority 2018, published 2025).
Entries after “also recorded” stand apart in the source; their conditions may differ. Read-outs that look alike come from different tables or passages of the source.

Key:
[1] = tested on: T cells expanded from patients with melanoma; experiment: Cytokine assays (IL-2, IFN-γ) in T cells expanded from patients with melanoma; assay type: cell-based, human
Source text: Veh=vehicle-treated cells DMSO 0.1%

cereblon = molecular target: T1, cereblon (Mus musculus, UniProt Q8C7D2); experiment: Western blot of cereblon in splenic T cells / splenocytes of mice treated orally with a single dose; assay type: in vivo; conditions: for cereblon levels in purified splenic T cells: single oral dose of 75 mg/kg
T1 construct: from tissue; host or cells: spleen: purified splenic T cells and total splenocytes of treated mice
T1 sequence (Q8C7D2 1-445): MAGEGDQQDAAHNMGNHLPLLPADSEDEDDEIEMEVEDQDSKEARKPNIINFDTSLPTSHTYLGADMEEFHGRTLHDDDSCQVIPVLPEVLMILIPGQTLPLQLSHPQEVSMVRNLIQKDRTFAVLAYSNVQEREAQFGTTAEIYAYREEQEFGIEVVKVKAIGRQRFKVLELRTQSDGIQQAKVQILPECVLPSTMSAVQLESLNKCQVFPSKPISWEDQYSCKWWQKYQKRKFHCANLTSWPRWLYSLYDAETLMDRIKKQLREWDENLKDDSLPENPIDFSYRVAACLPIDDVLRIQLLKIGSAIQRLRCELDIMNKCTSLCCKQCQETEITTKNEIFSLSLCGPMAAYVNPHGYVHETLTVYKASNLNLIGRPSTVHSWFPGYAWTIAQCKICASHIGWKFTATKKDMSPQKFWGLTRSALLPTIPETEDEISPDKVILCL
Procedure: FIG. 24 is a graph of results from Western blots from purified splenic T cells of mice treated orally with a single dose of 75 mg/kg SM2-145. Three mice were obtained from each time point (1, 6, 12, and 24 hrs) after treatment.
FIG. 25 contains a Western blot analysis of purified T cells from mice treated orally with a single dose of 75 mg/kg EC2-035 and EC2-134.

CRBN = molecular target: T2, CRBN (Homo sapiens, UniProt Q96SW2); experiment: Western blot for expression of CRBN relative to vinculin in human T cells (CRBN degradation); assay type: cell-based; conditions: for remaining activity at 10 µM / remaining activity at 0.01 µM: read-out: Relative Density of CRBN (% of DMSO)
T2 construct: endogenous in cells; host or cells: primary human T cells / CD8+ T cells from peripheral blood
Source text: Bortez=bortezomib; MG132=proteasome inhibitor; MLN4924=NEDD8 inhibitor.
This assay is a standard Western blot assay for expression of CRBN relative to vinculin.
[…] 0.1 percent DMSO was used as a vehicle control.

Ikaros = molecular target: T3, Ikaros (Homo sapiens, UniProt Q13422); experiment: Ikaros degradation in isolated human CD8+ T cells; assay type: cell-based; conditions: increasing doses
T3 construct: This molecule has a DC50 for Ikaros at 10 μM and for CRBN at <1 μM; endogenous in cells; host or cells: isolated human CD8+ T cells
Procedure: Isolated human CD8+ T cells were treated with increasing doses of EC1-168. This molecule has a DC50 for Ikaros at 10 μM and for CRBN at <1 μM. Unique functional properties may be afforded to the CDM compounds via distinct protein recruitment.
Isolated human CD8+ T cells were treated with increasing doses of EC2-134. This molecule has a DC50 for Ikaros at 10 nM and for CRBN at 100 μM. Unique functional properties may be afforded to the CDM compounds via distinct protein recruitment.

c-Myc = experiment: Western blot of c-Myc in activated human T cells; assay type: cell-based; conditions: human T cells activated by anti-CD3ε/anti-CD28
Source text: (§1) On the right is a schematic diagram of CRBN/DDB1/CUL4A and ubiquitin degrading function. […] DMSO was used in these experiments as a vehicle control. […] CRBN is shown for human T cells and vinculin loading control of human and mouse T cells are provided. […] Results shown are representative of three independent experiments.

cereblon (CRBN) [2] = molecular target: T4, cereblon (CRBN) (Homo sapiens, UniProt Q96SW2); experiment: Kd and % inhibition from FI; assay type: binding; conditions: for inhibition at 200 µM: read-out: % inhibition @ 200 uM from *FI
cereblon (CRBN) [3] = molecular target: T4, cereblon (CRBN); experiment: Kd from ITC; assay type: binding
cereblon (CRBN) [4] = molecular target: T5, cereblon (CRBN) (Mus musculus, UniProt Q8C7D2); experiment: Western blot of cereblon (CRBN) levels in mouse CD8+ T cells; assay type: cell-based; conditions: 24 hours of treatment
T5 construct: endogenous in cells; host or cells: mouse CD8+ T cells
T5 sequence (Q8C7D2 1-445): T1 sequence (Q8C7D2 1-445)

BRD4 = molecular target: T6, BRD4 (Mus musculus, UniProt Q9ESU6); experiment: Western blot of BRD4 in activated mouse T cells; assay type: cell-based; conditions: for BRD4 expression / degradation: mouse T cells activated with anti-CD3ε/anti-CD28
T6 construct: endogenous in cells
Source text: as §1

IL-2 [5] = experiment: IL-2 production in mouse T cells; assay type: cell-based; conditions: absence of CD28 co-stimulation
Procedure: (§2) IL-2 mRNA (FIG. 8A) and protein secretion (FIG. 8B) were measured in cells and culture supernatant, respectively. […] Cytokine levels were determined by ELISA. […] Results are representative of three independent experiments. […] Statistical analysis was conducted ANOVA, followed by Dunnett's multiple comparison test. *=p<0.05, ***=p<0.001 FIGS. 9A-9C show the structure of cereblon is concerved across different species. […] FIG. 9C is an overlay of human and mouse cereblon (Val380 and Ile391 for mCRBN; Glu377 and Val388 for hCRBN), are demarcated as thin tubes.

IL-2 [6] = experiment: IL-2 mRNA and protein secretion in anti-CD3 stimulated human T cells; assay type: cell-based; conditions: anti-CD3 stimulation without CD28 co-stimulation, relative to DMSO
Procedure: as §2
Cereblon acts as the E3 ubiquitin ligase (UbL) substrate receptor component of the DNA damage binding protein 1 (DDB1), cullin-4 (CUL4A and B), and ROC1 complex ([…]). […] Blood Cancer J 5, e354, 2015). […] […]. […] Br. J. Haematol. […] Leukemia 26:1425-1429, 2012), which is the hallmark of the immunomodulatory drug class.

IKZF1 = experiment: Western blot of IKZF1 (Ikaros) in T cells and multiple myeloma cells; assay type: cell-based
[7] = 24 h, 10nM, human T cells, 24 hours
[8] = single oral dose of 12.5, 25, and 75 mg/kg
[9] = FI, read-out: Kd (FI) (converted)
[10] = cell does not state FI or ITC, read-out: Kd (A) FI/ITC

T4 sequence (Q96SW2 whole entry, species assumed): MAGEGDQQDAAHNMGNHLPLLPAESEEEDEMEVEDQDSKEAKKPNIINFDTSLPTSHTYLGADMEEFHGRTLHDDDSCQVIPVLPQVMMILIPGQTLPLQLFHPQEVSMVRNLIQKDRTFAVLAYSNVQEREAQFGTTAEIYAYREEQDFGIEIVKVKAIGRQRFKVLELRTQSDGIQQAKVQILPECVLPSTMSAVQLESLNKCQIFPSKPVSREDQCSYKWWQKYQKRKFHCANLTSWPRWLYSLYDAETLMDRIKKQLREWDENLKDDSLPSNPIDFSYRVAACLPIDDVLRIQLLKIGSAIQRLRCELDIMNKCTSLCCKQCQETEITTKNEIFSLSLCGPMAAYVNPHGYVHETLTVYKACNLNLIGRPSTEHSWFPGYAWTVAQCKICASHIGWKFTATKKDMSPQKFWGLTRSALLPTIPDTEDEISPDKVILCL
T2 sequence (Q96SW2 whole entry): as the sequence (Q96SW2 whole entry, species assumed) above
T3 sequence (Q13422 whole entry): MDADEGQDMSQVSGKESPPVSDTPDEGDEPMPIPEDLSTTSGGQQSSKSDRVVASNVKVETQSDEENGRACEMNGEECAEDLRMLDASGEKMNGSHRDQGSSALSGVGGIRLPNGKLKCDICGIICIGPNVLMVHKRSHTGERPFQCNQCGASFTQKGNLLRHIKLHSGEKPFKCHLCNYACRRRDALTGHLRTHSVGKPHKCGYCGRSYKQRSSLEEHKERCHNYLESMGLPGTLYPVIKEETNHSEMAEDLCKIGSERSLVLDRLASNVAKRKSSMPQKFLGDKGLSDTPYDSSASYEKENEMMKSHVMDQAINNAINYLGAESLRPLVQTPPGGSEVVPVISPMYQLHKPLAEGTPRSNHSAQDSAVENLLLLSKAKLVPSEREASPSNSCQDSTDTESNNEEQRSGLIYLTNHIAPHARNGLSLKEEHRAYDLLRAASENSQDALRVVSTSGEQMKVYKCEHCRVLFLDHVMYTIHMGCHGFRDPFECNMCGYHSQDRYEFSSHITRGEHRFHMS

Cc1nc2cccc(N)c2c(=O)n1C1CCC(=O)NC1=O (stereo not shown) [CC122, avadomide, reference compound]
T cell function (IL-2 and IFN-γ after anti-CD3 (OKT3) activation) [1]: actively increasing T cell function

O=C1CCC(N2Cc3c(NCc4ccc(CNc5cccc6c5CN(C5CCC(=O)NC5=O)C6=O)cc4)cccc3C2=O)C(=O)N1 (stereo not shown) [EC2-035, 3,3′-(((1,4-Phenylenebis(methylene))bis(azanediyl))bis(1-oxoisoindoline-4,2-diyl))bis(piperidine-2,6-dione)]
cereblon levels in purified splenic T cells (cereblon): sustained reduction in cereblon levels at 6, 9 and 12 hours
remaining activity at 10 µM (CRBN): 99.7%
remaining activity at 0.01 µM (CRBN; [7]): 2.32%

O=C1CCC(N2C(=O)c3cccc(NCc4ccc(CNc5cccc6c5C(=O)N(C5CCC(=O)NC5=O)C6=O)cc4)c3C2=O)C(=O)N1 (stereo not shown) [EC2-134]
cereblon levels in purified splenic T cells (cereblon): sustained reduction in cereblon levels at 6, 9 and 12 hours
cereblon levels in purified T cells (cereblon; [8]): inverse dose dependent levels of cereblon
cereblon levels in total splenocytes (cereblon; [8]): inverse dose dependent levels of cereblon
cereblon levels in purified T cells at the lowest dose (cereblon; single oral dose, lowest dose (12.5 mg/kg), compared with Crbn-/- T cells): significantly reduced
remaining activity at 10 µM (CRBN): 13.8%
remaining activity at 0.01 µM (CRBN; [7]): 4%
DC50 (CRBN; isolated human CD8+ T cells, increasing doses, read-out: DC50 for CRBN): 100 µM
DC50 (Ikaros): 0.01 µM

Cc1sc2c(c1C)C(c1ccc(Cl)cc1)=N[C@@H](CC(=O)OC(C)(C)C)c1nnc(C)n1-2 [JQ1]
c-Myc suppression (c-Myc): Suppression of c-Myc is evident

O=C(COc1cccc2c1C(=O)N(C1CCC(=O)NC1=O)C2=O)NCCOCCOCCNC(=O)COc1cccc2c1C(=O)N(C1CCC(=O)NC1=O)C2=O (stereo not shown) [SM2-048]
remaining activity at 10 µM (CRBN): 15.8%
remaining activity at 0.01 µM (CRBN; [7]): 99.5%
CRBN expression (Western blot) (CRBN; anti-CD3/anti-CD28 stimulated human T cells, 0.1, 1, and 10 μM): significant reduction in CRBN expression
Kd (cereblon (CRBN) [2]; [9]): 11.3 µM
inhibition at 200 µM (cereblon (CRBN) [2]): 68.2 ± 3.33%
Kd (cereblon (CRBN) [3]): 12.3 ± 0.4 µM

O=C1CCC(N2Cc3c(CCCOCCCc4cccc5c4CN(C4CCC(=O)NC4=O)C5=O)cccc3C2=O)C(=O)N1 (stereo not shown) [SM2-144, 3,3′-((Oxybis(propane-3,1-diyl))bis(1-oxoisoindoline-4,2-diyl))bis(piperidine-2,6-dione)]
remaining activity at 10 µM (CRBN): 3.05%
remaining activity at 0.01 µM (CRBN; [7]): 24.1%
Kd (cereblon (CRBN) [2]; [9]): 5.88 µM
inhibition at 200 µM (cereblon (CRBN) [2]): 73.9 ± 14.9%
Kd (cereblon (CRBN) [3]): 4.4 ± 1.4 µM

O=C(CCc1cccc2c1CN(C1CCC(=O)NC1=O)C2=O)NCCOCCNC(=O)CCc1cccc2c1CN(C1CCC(=O)NC1=O)C2=O (stereo not shown) [SM3-010, N,N′-(Oxybis(ethane-2,1-diyl))bis(3-(2-(2,6-dioxopiperidin-3-yl)-1-oxoisoindolin-4-yl)propanamide)]
remaining activity at 10 µM (CRBN): 86.9%
remaining activity at 0.01 µM (CRBN; [7]): 119%
Kd (cereblon (CRBN) [2]; [9]): 14.3 ± 0.52 µM
inhibition at 200 µM (cereblon (CRBN) [2]): 72.4 ± 0.84%

O=C(CCc1cccc2c1CN(C1CCC(=O)NC1=O)C2=O)NCCOCCOCCOCCNC(=O)CCc1cccc2c1CN(C1CCC(=O)NC1=O)C2=O (stereo not shown) [SM3-011, N,N′-(((Oxybis(ethane-2,1-diyl))bis(oxy))bis(ethane-2,1-diyl))bis(3-(2-(2,6-dioxopiperidin-3-yl)-1-oxoisoindolin-4-yl)propanamide)]
remaining activity at 10 µM (CRBN): 85.4%
remaining activity at 0.01 µM (CRBN; [7]): 102%
Kd (cereblon (CRBN) [2]; [9]): 14.8 ± 1.08 µM
inhibition at 200 µM (cereblon (CRBN) [2]): 73.39 ± 0.71%

COCCOCCCc1cccc2c1CN(C1CCC(=O)NC1=O)C2=O (stereo not shown) [SM3-095, 3-(4-(3-(2-Methoxyethoxy)propyl)-1-oxoisoindolin-2-yl)piperidine-2,6-dione]
cereblon (CRBN) levels (Western blot) (cereblon (CRBN) [4]): not

O=C(COc1cccc2c1C(=O)N(C1CCC(=O)NC1=O)C2=O)NCCCCNC(=O)COc1cccc2c1C(=O)N(C1CCC(=O)NC1=O)C2=O (stereo not shown) [SY2-060, N,N′-(Butane-1,4-diyl)bis(2-((2-(2,6-dioxopiperidin-3-yl)-1,3-dioxoisoindolin-4-yl)oxy)acetamide)]
remaining activity at 0.01 µM (CRBN; 24 h): 104%
inhibition at 200 µM (cereblon (CRBN) [2]): 1.52 ± 1.91%

O=C1CCC(N2Cc3c(C#CCOCCOCC#Cc4cccc5c4CN(C4CCC(=O)NC4=O)C5=O)cccc3C2=O)C(=O)N1 (stereo not shown) [SY4-065]
remaining activity at 10 µM (CRBN): 136%
remaining activity at 0.01 µM (CRBN; [7]): 1.75%
Kd (A) FI/ITC (cereblon (CRBN) [2]; cell does not state FI or ITC): n.b.

O=C1CC[C@H](N2Cc3c(C#CCOCCOCC#Cc4cccc5c4CN([C@H]4CCC(=O)NC4=O)C5=O)cccc3C2=O)C(=O)N1 [XS01-008B2, (3S,3'S)-3,3′-(((Ethane-1,2-diylbis(oxy))bis(prop-1-yne-3,1-diyl))bis(1-oxoisoindoline-4,2-diyl))bis(piperidine-2,6-dione)]
remaining activity at 0.01 µM (CRBN; [7]): 11.8%
Kd (cereblon (CRBN) [2]; [9]): 2.53 ± 1.53 µM

O=C1CCC(NC(=O)CCCCCCCCC(=O)NC2CCC(=O)NC2=O)C(=O)N1 (stereo not shown) [XS01-039, N^1,N^10-Bis(2,6-dioxopiperidin-3-yl)decanediamide]
remaining activity at 0.01 µM (CRBN; 10nM, B2): 92.9%
remaining activity at 10 µM (CRBN; B2): 13.1%
remaining activity at 10 µM (CRBN): 0.98%
remaining activity at 0.01 µM (CRBN; [7]): 61.3%
Kd (cereblon (CRBN) [2]; [10]): 161 ± 19.3 µM

O=C1CCC(NC(=O)c2cccc(NC(=O)CCCC(=O)Nc3cccc(C(=O)NC4CCC(=O)NC4=O)c3)c2)C(=O)N1 (stereo not shown) [XS01-074, N^1,N^5-Bis(3-((2,6-Dioxopiperidin-3-yl)carbamoyl)phenyl)glutaramide]
remaining activity at 10 µM (CRBN): 25.9%
Kd (cereblon (CRBN) [2]; [10]): 187 ± 16.2 µM

Cc1sc2c(c1C)C(c1ccc(Cl)cc1)=N[C@@H](CC(=O)NCCCCNC(=O)COc1cccc3c1C(=O)N(C1CCC(=O)NC1=O)C3=O)c1nnc(C)n1-2 (stereo partly shown) [dBET1]
BRD4 expression / degradation (BRD4): degrades BRD4
c-Myc suppression (c-Myc): Suppression of c-Myc is evident

Nc1cccc2c1CN(C1CCC(=O)NC1=O)C2=O (stereo not shown) [lenalidomide, Lenalidomide]
IL-2 production (IL-2 [5]): not
IL-2 production (mRNA and protein secretion) (IL-2 [6]): significantly increased; also recorded: augments IL-2 production
cereblon (CRBN) levels (Western blot) (cereblon (CRBN) [4]): not

Nc1cccc2c1C(=O)N(C1CCC(=O)NC1=O)C2=O (stereo not shown) [pomolidomide]
IKZF1 expression (IKZF1): decreased
BRD4 expression / degradation (BRD4): failed to reduce BRD4 expression
effect on dBET1-induced BRD4 degradation (BRD4; mouse T cells, Pom 0.5 μM with dBET1): reversed the degradation observed through dBET1
